According to patent publication US20230286948A1 (HUYABIO International, LLC, priority 2022, published 2023):

tested on: MV-411 cells; experiment: Anti-proliferative activity against MV-411 leukemia cells (CellTiterGlo viability, 72 h); assay type: cell-based; conditions: Homo sapiens, MV4-11, 72 h, MV-411 human acute monocytic leukemia cells, a second value in parentheses is a further determination
Method: Procedure: MV-411 cells were seeded into 384 well plates at 2000 cells/well density in 50 μL total volume, according to plate map and were allowed to naturally sediment by waiting about 30 min on a Clean Bench. Next, plated cells were centrifuged for 1 min at 1000 rpm and the excess cells were transferred into the flasks for further culture. Cells in the assay plates were incubated (at least 4 hrs.) at 37° C., 5% CO2 followed by adding the compounds as the plate map indicated. The tests were performed in duplicates with treatment of compounds at 10 pts 3-fold titration in 384 well plates. Taxol was used as positive control while DMSO as negative control. To rule out edge effect, the wells on the edge were not seeded and therefore one 384 well plate holds 13 compounds. Cells viability was measured 72h after incubation with compounds using CellTiterGlo (promega) viability assay according to manufacturer's instruction to check the ATP production in each well.
Experiments on anti-proliferative activity against leukemia cells were conducted with some of the compounds of the invention.

SMILES	GI50 [µM]
CN1CCN(c2ccc(-n3cc(C(=O)NCCCN4CCOCC4)nn3)cc2NC(=O)c2cnc(C(F)F)cc2Cl)CC1 [Compound 22]	39.7
CSc1ccc(C(=O)Nc2cc(-n3cc(C(=O)NCCCN4CCOCC4)nn3)ccc2N2CCN(C)CC2)c(C(F)(F)F)n1 [Compound 43]	19.9
Cc1cc(N)ncc1C(=O)Nc1cc(-n2cc(C(=O)NCCCN3CCOCC3)nn2)ccc1N1CCN(C)CC1 [Compound 24]	> 200
CN1CCN(c2ccc(-n3cc(C(=O)NCCCN4CCOCC4)nn3)cc2NC(=O)c2ncc(Cl)nc2Cl)CC1 [Compound 34]	0.37
C[C@@H]1CN(c2cc(F)c(-n3cc(C(=O)N4CCN(C)CC4)nn3)cc2NC(=O)c2cnc(Cl)cc2Cl)C[C@H](C)N1C [Compound 57]	0.74
C[C@@H]1CN(c2cc(F)c(-n3cc(C(=O)NCCCN4CCOCC4)nn3)cc2NC(=O)c2c[nH]c(=O)cc2C(F)(F)F)C[C@H](C)N1C [Compound 6]	> 200
CN1CCN(c2ccc(-n3cc(C(=O)NCCCN4CCOCC4)nn3)cc2NC(=O)c2cnc(N)cc2C(F)(F)F)CC1 [Compound 18]	42.7
C[C@@H]1CN(c2cc(F)c(-n3cc(C(=O)NC4CCN(C)CC4)nn3)cc2NC(=O)c2cnc(Cl)cc2C(F)(F)F)C[C@H](C)N1C [Compound 52]	1.22
C[C@@H]1CN(c2cc(F)c(-n3cc(C(=O)NCCCN4CCOCC4)nn3)cc2NC(=O)c2cnc(Cl)cc2C(F)(F)F)C[C@H](C)N1C [Compound 5]	7.26
Cc1cc(C(F)(F)F)c(C(=O)Nc2cc(-n3cc(C(=O)NCCCN4CCOCC4)nn3)ccc2N2CCN(C)CC2)cn1 [Compound 12]	60.1
Cc1cc(Cl)c(C(=O)Nc2cc(-n3cc(C(=O)NCCCN4CCOCC4)nn3)ccc2N2CCN(C)CC2)cc1N [Compound 49]	27.7
CN1CCN(c2ccc(-n3cc(C(=O)NCCCN4CCOCC4)nn3)cc2NC(=O)c2c[nH]c(=O)cc2C(F)(F)F)CC1 [Compound 4]	> 200
CN1CCN(c2ccc(-n3cc(C(=O)NCCCN4CCOCC4)nn3)cc2NC(=O)c2ccc(C#N)nc2C(F)(F)F)CC1 [Compound 39]	20.2
COc1cnc(C(=O)Nc2cc(-n3cc(C(=O)NCCCN4CCOCC4)nn3)ccc2N2CCN(C)CC2)c(OC)n1 [Compound 36]	28.2
COc1cc(C(F)(F)F)c(C(=O)Nc2cc(-n3cc(C(=O)NCCCN4CCOCC4)nn3)c(F)cc2N2C[C@@H](C)N(C)[C@@H](C)C2)cn1 [Compound 55]	27.8
Cc1nc(C(F)(F)F)ncc1C(=O)Nc1cc(-n2cc(C(=O)NCCCN3CCOCC3)nn2)ccc1N1CCN(C)CC1 [Compound 31]	106
CN1CCN(c2ccc(-n3cc(C(=O)NCCCN4CCOCC4)nn3)cc2NC(=O)c2ccc(C(N)=O)nc2C(F)(F)F)CC1 [Compound 40]	> 200
C[C@H]1CN(c2ccc(-n3cc(C(=O)NCCCN4CCOCC4)nn3)cc2NC(=O)c2c[nH]c(=O)cc2C(F)(F)F)CCN1C [Compound 10]	> 200
CSc1cc(C(F)(F)F)c(C(=O)Nc2cc(-n3cc(C(=O)NCCCN4CCOCC4)nn3)ccc2N2CCN(C)CC2)cn1 [Compound 14]	25.3
CN1CCN(c2ccc(-n3cc(C(=O)NCCCN4CCOCC4)nn3)cc2NC(=O)c2nnc(Cl)cc2N)CC1 [Compound 33]	35.3
C[C@@H]1CN(c2cc(F)c(-n3cc(C(=O)N4CCN(C)CC4)nn3)cc2NC(=O)c2cnc(Cl)cc2C(F)(F)F)C[C@H](C)N1C [Compound 51]	1.14
Cc1cc(F)ncc1C(=O)Nc1cc(-n2cc(C(=O)NCCCN3CCOCC3)nn2)ccc1N1CCN(C)CC1 [Compound 25]	146
CN1CCN(c2cc(F)c(-n3cc(C(=O)NCCCN4CCOCC4)nn3)cc2NC(=O)c2c[nH]c(=O)cc2C(F)(F)F)CC1 [Compound 8]	> 200
CN1CCN(c2ccc(-n3cc(C(=O)NCCCN4CCOCC4)nn3)cc2NC(=O)c2cnc(C#N)cc2C(F)(F)F)CC1 [Compound 13]	21.8
CN1CCN(c2ccc(-n3cc(C(=O)NCCCN4CCOCC4)nn3)cc2NC(=O)c2ccc(N)nc2C(F)(F)F)CC1 [Compound 41]	108
CCN(CC)C(=O)c1cn(-c2cc(NC(=O)c3cnc(Cl)cc3Cl)c(N3C[C@@H](C)N(C)[C@@H](C)C3)cc2F)nn1 [Compound 56]	1.17

SMILES	GI50 [µM]
CN1CCN(c2ccc(-n3cc(C(=O)NCCCN4CCOCC4)nn3)cc2NC(=O)c2cnc([S+](C)[O-])nc2C(F)(F)F)CC1 (stereo not shown) [Compound 28]	> 200
CCOc1ncc(C(=O)Nc2cc(-n3cc(C(=O)NCCCN4CCOCC4)nn3)ccc2N2CCN(C)CC2)c(C(F)(F)F)n1 [Compound 29]	18.4
COc1ccc(CNc2ccc(C(=O)Nc3cc(-n4cc(C(=O)NCCCN5CCOCC5)nn4)ccc3N3CCN(C)CC3)c(C(F)(F)F)n2)cc1 [Compound 42]	3.17
CCN(CC)C(=O)c1cn(-c2cc(NC(=O)c3cnc(Cl)cc3C(F)(F)F)c(N3C[C@@H](C)N(C)[C@@H](C)C3)cc2F)nn1 [Compound 50]	0.49
C[C@@H]1CN(c2cc(F)c(-n3cc(C(=O)NC4CCN(C)CC4)nn3)cc2NC(=O)c2cnc(C(F)(F)F)cc2Cl)C[C@H](C)N1C [Compound 58]	0.68
CN1CCN(c2ccc(-n3cc(C(=O)NCCCN4CCOCC4)nn3)cc2NC(=O)c2ccc(Cl)cc2C(F)(F)F)CC1 [Compound 46]	22.4
CN1CCN(c2ccc(-n3cc(C(=O)NCCCN4CCOCC4)nn3)cc2NC(=O)c2ccc(Cl)nc2C(F)(F)F)CC1 [Compound 37]	44.3
Cc1c(Cl)ncc(C(=O)Nc2cc(-n3cc(C(=O)NCCCN4CCOCC4)nn3)ccc2N2CCN(C)CC2)c1Cl [Compound 21]	2.5
COc1ccc(C(=O)Nc2cc(-n3cc(C(=O)NCCCN4CCOCC4)nn3)ccc2N2CCN(C)CC2)c(C(F)(F)F)n1 [Compound 38]	67.9
C[C@@H]1CN(c2ccc(-n3cc(C(=O)NCCCN4CCOCC4)nn3)cc2NC(=O)c2cnc(Cl)cc2C(F)(F)F)C[C@H](C)N1C [Compound 1]	1.38
COc1cnc(C(=O)Nc2cc(-n3cc(C(=O)NCCCN4CCOCC4)nn3)ccc2N2CCN(C)CC2)c(Cl)n1 [Compound 35]	2.42
CSc1ncc(C(=O)Nc2cc(-n3cc(C(=O)NCCCN4CCOCC4)nn3)ccc2N2CCN(C)CC2)c(C(F)(F)F)n1 [Compound 27]	18.5
C[C@@H]1CN(c2ccc(-n3cc(C(=O)NCCCN4CCOCC4)nn3)cc2NC(=O)c2c[nH]c(=O)cc2C(F)(F)F)C[C@H](C)N1C [Compound 2]	> 200
CN1CCN(c2ccc(-n3cc(C(=O)NCCCN4CCOCC4)nn3)cc2NC(=O)c2ncc(N)cn2)CC1 [Compound 45]	11.2
CN1CCN(c2ccc(-n3cc(C(=O)NCCCN4CCOCC4)nn3)cc2NC(=O)c2ccc(S(C)(=O)=O)nc2C(F)(F)F)CC1 [Compound 44]	49.9
COc1nc(SC)ncc1C(=O)Nc1cc(-n2cc(C(=O)NCCCN3CCOCC3)nn2)ccc1N1CCN(C)CC1 [Compound 30]	12.2
COc1cc(C(F)(F)F)c(C(=O)Nc2cc(-n3cc(C(=O)NC4CCN(C)CC4)nn3)c(F)cc2N2C[C@@H](C)N(C)[C@@H](C)C2)cn1 [Compound 54]	14.3
CN1CCN(c2ccc(-n3cc(C(=O)NCCCN4CCOCC4)nn3)cc2NC(=O)c2nnc(Cl)cc2Cl)CC1 [Compound 32]	1.24
Cc1ncc(C(=O)Nc2cc(-n3cc(C(=O)NCCCN4CCOCC4)nn3)ccc2N2CCN(C)CC2)c(C(F)(F)F)n1 [Compound 26]	75.2
CCN(CC)C(=O)c1cn(-c2cc(NC(=O)c3cnc(F)cc3C(F)(F)F)c(N3C[C@@H](C)N(C)[C@@H](C)C3)cc2F)nn1 [Compound 53]	0.9
CN1CCN(c2ccc(-n3cc(C(=O)NCCCN4CCOCC4)nn3)cc2NC(=O)c2cnc(F)cc2C(F)(F)F)CC1 [Compound 11]	2.14
CN1CCN(c2ccc(-n3cc(C(=O)NCCCN4CCOCC4)nn3)cc2NC(=O)c2cnc(C(F)(F)F)cc2Cl)CC1 [Compound 20]	2.86
CN1CCN(c2ccc(-n3cc(C(=O)NCCCN4CCOCC4)nn3)cc2NC(=O)c2cnc(Cl)cc2Cl)CC1 [Compound 19]	0.91
CN1CCN(c2ccc(-n3cc(C(=O)NCCCN4CCOCC4)nn3)cc2NC(=O)c2cnc(C#N)cc2N(C)C)CC1 [Compound 23]	196
COc1cc(C(F)(F)F)c(C(=O)Nc2cc(-n3cc(C(=O)NCCCN4CCOCC4)nn3)ccc2N2CCN(C)CC2)cn1 [Compound 16]	51.9
CN1CCN(c2ccc(-n3cc(C(=O)NCCCN4CCOCC4)nn3)cc2NC(=O)c2cnc(S(C)(=O)=O)cc2C(F)(F)F)CC1 [Compound 15]	> 237

same assay, conditions: MV-411 human acute monocytic leukemia cells, a second value in parentheses is a further determination

SMILES	GI50 [µM]
Cc1cc(C(F)(F)F)c(C(=O)Nc2cc(-n3cc(C(=O)NCCCN4CCOCC4)nn3)ccc2N2CCN(C)CC2)cn1 [Compound 12]	88.8
CSc1cc(C(F)(F)F)c(C(=O)Nc2cc(-n3cc(C(=O)NCCCN4CCOCC4)nn3)ccc2N2CCN(C)CC2)cn1 [Compound 14]	21.4
CN1CCN(c2ccc(-n3cc(C(=O)NCCCN4CCOCC4)nn3)cc2NC(=O)c2cnc(C#N)cc2C(F)(F)F)CC1 [Compound 13]	23.7
CN1CCN(c2ccc(-n3cc(C(=O)NCCCN4CCOCC4)nn3)cc2NC(=O)c2ccc(Cl)nc2C(F)(F)F)CC1 [Compound 37]	46.2
Cc1c(Cl)ncc(C(=O)Nc2cc(-n3cc(C(=O)NCCCN4CCOCC4)nn3)ccc2N2CCN(C)CC2)c1Cl [Compound 21]	2.33
Cc1ncc(C(=O)Nc2cc(-n3cc(C(=O)NCCCN4CCOCC4)nn3)ccc2N2CCN(C)CC2)c(C(F)(F)F)n1 [Compound 26]	61.7
CN1CCN(c2ccc(-n3cc(C(=O)NCCCN4CCOCC4)nn3)cc2NC(=O)c2cnc(F)cc2C(F)(F)F)CC1 [Compound 11]	2.01
CN1CCN(c2ccc(-n3cc(C(=O)NCCCN4CCOCC4)nn3)cc2NC(=O)c2cnc(C(F)(F)F)cc2Cl)CC1 [Compound 20]	3.19
CN1CCN(c2ccc(-n3cc(C(=O)NCCCN4CCOCC4)nn3)cc2NC(=O)c2cnc(Cl)cc2Cl)CC1 [Compound 19]	0.94
